From patent US20210228562A1, “IRAK DEGRADERS AND USES THEREOF” (Kymera Therapeutics, Inc., priority 2019, published 2021) come the findings set out here.

Where two headings read alike, the source gives them in different places.

What all share (assay type): cell-based
For one assay, the target named is T1, IRAK4 (Homo sapiens, UniProt Q9NWZ3).
T1 construct: endogenous in cells; host or cells: OCI-LY10
T1 sequence (Q9NWZ3 1-460): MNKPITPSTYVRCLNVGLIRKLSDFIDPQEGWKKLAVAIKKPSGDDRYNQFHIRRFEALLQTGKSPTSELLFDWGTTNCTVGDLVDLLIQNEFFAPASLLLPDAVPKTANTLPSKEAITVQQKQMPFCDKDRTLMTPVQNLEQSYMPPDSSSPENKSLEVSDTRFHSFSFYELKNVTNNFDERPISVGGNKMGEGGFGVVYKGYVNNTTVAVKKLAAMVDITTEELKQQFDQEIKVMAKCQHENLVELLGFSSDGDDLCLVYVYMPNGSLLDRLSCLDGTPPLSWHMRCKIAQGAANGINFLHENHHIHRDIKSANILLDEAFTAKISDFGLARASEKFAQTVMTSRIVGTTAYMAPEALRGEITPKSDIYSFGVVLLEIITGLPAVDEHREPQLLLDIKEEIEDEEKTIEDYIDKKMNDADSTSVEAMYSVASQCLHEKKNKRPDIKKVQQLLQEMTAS
Put plainly: IRAK4 MSD Degradation in OCI-LY10. Particulars: OCI-LY10 cells. The procedure: Degradation of IRAK4 in OCI-LY10 was quantitatively measured using Meso Scale Discovery technology. OCI-LY10 cells were seeded in 96-well plates (Corning 3799) with a density of 300,000 cells per well in 100 μL fresh media. Compounds were then added to the assay plates with a final top concentration of 1 to 10 μM in a 1:3 dilution series with total of 8 doses. The assay plates were then incubated for 4 to 24 hours at 37° C. under 5% CO2. The assay plates were then centrifuged for 5 minutes and the cell pellets were treated with 100 μL/well RIPA lysis buffer (Boston BioProducts BP-115D) with proteinase inhibitors. To prepare MSD assay plates (Meso Scale Discovery Catalog number L15XA-3), the plates were coated with 2 μg/mL capture antibody (mouse Anti-IRAK4 antibody [2H9], ab119942) in PBS, at 40 μL/well. The plates were then incubated overnight at 4° C., washed 3 times with 150 μL/well TBST buffer (Cell Signaling Technology, Catalog number 9997S) and blocked with 150 μL/well blocking buffer (Meso Scale Discovery Catalog number R93BA-4). Cell lysates were then added to MSD assay plates and the plates were incubated at room temperature for 1 hour. The plates were then washed 3 times with 150 μL/well TBST buffer and 25 μL/well primary detection antibody (rabbit Anti-IRAK4 antibody [Y279], from Abcam. Catalog number ab32511, 1 μg/mL). The assay plates were then incubated at room temperature for 1 hour, washed 3 times with 150 μL/well TBST buffer and 25 μL/well secondary detection antibody, SULFO-TAG anti-rabbit antibody were added (anti rabbit antibody from Meso Scale Discovery, Catalog number R32AB-1, 1 μg/mL). The assay plates were then incubated at room temperature for 1 hour, washed 3 times with 150 μL/well TBST buffer, and 150 μL/well MSD reading buffer (Meso Scale Discovery catalog number R92TC-2) was added. The plates were then analyzed by a MSD reader (Meso Scale Discovery, Model Quick Plex SQ 120). The data was then analyzed by software Prism 7.0 from GraphPad and the dose-depended IRAK4 degradation were fit using a three-parameter logistic equation to calculate DC50.

The next assay deals with OCI-LY10 cells. The assay is described as follows: CTG Cell Viability Assay - OCI-LY10. The conditions noted are these: Homo sapiens, 96 h, CellTiter-Glo, 4 days incubation. The procedure: Compound-mediated viability effect on OCI-LY10 or SUDHL-2 was quantitatively determined using the CellTiter-Glo® Luminescent Cell Viability Assay kit from Promega (Catalog number G7570) following manufacturer's recommended procedures. Briefly, OCI-LY10 or SUDHL-2 cells were seeded into 384 well plates (Grenier Bio-One, Catalog number 781080) with a density of 10,000 cells per well. Compounds were then added to the assay plate with final top concentration of 10 μM and 1:3 dilution series with total of 9 doses. The final DMSO concentration was normalized to 0.2%. The assay plates were incubated at 37° C. for 4 days under 5% CO2. Then the assay plate was equilibrated at room temperature for 10 minutes. To determine cell viability, 30 μL CellTiter Glo reagent was added to each well and the assay plate was centrifuged at 1000 rpm for 30 second, incubated at room temperature for 10 min, and analyzed by detecting the luminescence using a multimode plate reader (EnVision 2105, PerkinElmer). The data was then analyzed by software Prism 7.0 from GraphPad and the dose response curves were fit using a three-parameter logistic equation to calculate IC50.

The target of assay [1] is T2, Ikaros (protein product of gene IKZF1) (Homo sapiens, UniProt Q13422+Q96SW2).
T2 construct: endogenous in cells; host or cells: OCI-LY10
Put plainly: Quantification of Ikaros degradation in OCI-LY10 cells (quantitative immunoblotting). Particulars: 6 h treatment. The procedure:
(§1) Degradation of Ikaros (protein product of gene IKZF1) and Aiolos (protein product of gene IKZF3) were determined by quantitative immunoblotting as follows. OCI-LY10 cells, 2×10^6 cells/well, were treated with listed concentrations of IRAK4 degraders or control compounds in 6 well plates for 6 h. Cells were collected, washed with cold PBS, lysed in RIPA buffer (Boston BioProducts BP-115D) with protease/phosphatase inhibitor cocktail (Roche 05892791001/Roche 04906837001) and centrifuged at 13000 RPM for 20 min to precipitate insoluble material. The supernatant fraction was diluted in SDS-PAGE loading buffer (Beyotime Bio P0015) and 20 μL of each sample was resolved on 4-12% Bis-Tris SDS-PAGE gels (Novex, WG1402BOX). Resolved samples were transferred to nitrocellulose membranes by wet electro-transfer method at 250 mV for 1.5 h. The membrane was blocked with LICOR blocking buffer (LI-COR, 927-50000) for 1 hour, washed three times with TBST (CST #99975) for 5 minutes each and incubated with primary antibody prepared in block buffer with 0.1% Tween-20 (Solarbio, P8220) at 4° C. overnight. Ikaros antibody was rabbit monoclonal D6N9Y (CST #14859), at 1:1000 dilution. Aiolos antibody was rabbit monoclonal D1C1E (CST #15103), at 1:1000 dilution. Signal was normalized to mouse anti-beta-Actin monoclonal 8H10D10 (CST #3700) used at 1:10,000 dilution. After incubation in primary antibodies, membranes were washed three times with TBST, 5 minutes each, incubated with fluorescently labeled secondary antibodies anti-rabbit IgG (Licor, 926-32211) at 1:5000 dilution; anti-mouse IgG (LI-COR, 926-68070) at 1:5000 dilution, for 1 hour at RT. After incubation in secondary, membranes were washed three times with TBST, 5 minutes each and read on LICOR Odyssey imager. Data was reported as signal for Ikaros or Aiolos relative to signal for actin, and normalized to DMSO-treated control.

Assay [2] addresses T3, Aiolos (protein product of gene IKZF3) (Homo sapiens, UniProt Q96SW2+Q9UKT9).
T3 construct: endogenous in cells; host or cells: OCI-LY10
Put plainly: Quantification of Aiolos degradation in OCI-LY10 cells (quantitative immunoblotting). The conditions noted are these: 6 h treatment. The procedure:
as §1

Where [3] appears, read: 24 hrs incubation, read-out: IRAK4 degradation in OCI-LY10 at 24 hrs: DC50.

T2 sequence (Q13422 whole entry): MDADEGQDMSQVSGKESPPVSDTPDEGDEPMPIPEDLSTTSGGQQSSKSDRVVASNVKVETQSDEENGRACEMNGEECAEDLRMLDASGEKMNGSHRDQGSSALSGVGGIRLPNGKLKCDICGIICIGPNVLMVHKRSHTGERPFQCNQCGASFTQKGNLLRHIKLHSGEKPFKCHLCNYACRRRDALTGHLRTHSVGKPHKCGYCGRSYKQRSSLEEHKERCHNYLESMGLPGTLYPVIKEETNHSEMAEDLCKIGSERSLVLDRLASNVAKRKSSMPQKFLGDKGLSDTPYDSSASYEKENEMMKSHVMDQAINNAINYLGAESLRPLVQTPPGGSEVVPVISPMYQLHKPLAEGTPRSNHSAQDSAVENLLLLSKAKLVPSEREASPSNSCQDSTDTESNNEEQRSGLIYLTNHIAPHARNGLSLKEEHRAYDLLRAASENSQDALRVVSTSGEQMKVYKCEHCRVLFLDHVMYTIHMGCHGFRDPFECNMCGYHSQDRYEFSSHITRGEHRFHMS
T2 sequence (Q96SW2 whole entry): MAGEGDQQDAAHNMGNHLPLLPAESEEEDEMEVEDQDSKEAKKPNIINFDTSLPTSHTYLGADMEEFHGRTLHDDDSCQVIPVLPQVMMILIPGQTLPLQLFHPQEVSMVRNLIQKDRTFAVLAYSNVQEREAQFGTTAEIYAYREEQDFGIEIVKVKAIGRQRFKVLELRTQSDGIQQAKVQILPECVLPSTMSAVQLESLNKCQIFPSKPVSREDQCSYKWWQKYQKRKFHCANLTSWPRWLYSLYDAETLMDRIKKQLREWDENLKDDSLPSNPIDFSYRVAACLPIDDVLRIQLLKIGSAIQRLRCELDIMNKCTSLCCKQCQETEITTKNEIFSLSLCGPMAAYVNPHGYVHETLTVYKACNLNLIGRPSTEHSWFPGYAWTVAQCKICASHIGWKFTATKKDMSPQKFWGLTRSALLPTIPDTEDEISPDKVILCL
T2 sequence (Q16531 whole entry partner): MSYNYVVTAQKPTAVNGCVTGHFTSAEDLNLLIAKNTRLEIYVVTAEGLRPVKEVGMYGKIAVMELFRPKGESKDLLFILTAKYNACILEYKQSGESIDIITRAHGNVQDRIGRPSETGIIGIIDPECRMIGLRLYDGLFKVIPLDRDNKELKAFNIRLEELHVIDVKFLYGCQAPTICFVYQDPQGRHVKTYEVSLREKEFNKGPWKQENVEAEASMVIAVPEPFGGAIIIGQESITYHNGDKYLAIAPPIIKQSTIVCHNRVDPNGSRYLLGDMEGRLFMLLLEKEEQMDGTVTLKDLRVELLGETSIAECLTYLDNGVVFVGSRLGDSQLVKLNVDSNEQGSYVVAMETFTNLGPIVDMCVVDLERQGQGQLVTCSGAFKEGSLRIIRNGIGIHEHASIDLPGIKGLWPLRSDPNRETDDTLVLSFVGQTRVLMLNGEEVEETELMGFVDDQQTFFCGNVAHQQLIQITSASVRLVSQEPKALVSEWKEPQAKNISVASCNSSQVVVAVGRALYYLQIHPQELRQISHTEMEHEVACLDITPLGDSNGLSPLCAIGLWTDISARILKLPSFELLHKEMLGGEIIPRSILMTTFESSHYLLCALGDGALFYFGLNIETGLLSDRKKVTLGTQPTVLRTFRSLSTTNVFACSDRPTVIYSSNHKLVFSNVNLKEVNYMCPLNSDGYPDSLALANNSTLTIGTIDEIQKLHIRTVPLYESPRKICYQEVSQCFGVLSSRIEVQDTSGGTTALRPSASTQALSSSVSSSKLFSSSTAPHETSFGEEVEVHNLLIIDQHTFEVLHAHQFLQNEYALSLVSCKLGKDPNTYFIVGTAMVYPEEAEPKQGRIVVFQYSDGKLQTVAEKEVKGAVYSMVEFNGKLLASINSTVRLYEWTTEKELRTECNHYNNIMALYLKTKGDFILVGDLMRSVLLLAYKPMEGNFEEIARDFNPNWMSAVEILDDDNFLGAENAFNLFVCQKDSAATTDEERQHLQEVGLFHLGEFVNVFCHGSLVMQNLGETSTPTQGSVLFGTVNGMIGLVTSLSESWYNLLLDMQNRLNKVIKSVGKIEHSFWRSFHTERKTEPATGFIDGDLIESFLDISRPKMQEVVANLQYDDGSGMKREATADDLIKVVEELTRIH
T3 sequence (Q9UKT9 whole entry): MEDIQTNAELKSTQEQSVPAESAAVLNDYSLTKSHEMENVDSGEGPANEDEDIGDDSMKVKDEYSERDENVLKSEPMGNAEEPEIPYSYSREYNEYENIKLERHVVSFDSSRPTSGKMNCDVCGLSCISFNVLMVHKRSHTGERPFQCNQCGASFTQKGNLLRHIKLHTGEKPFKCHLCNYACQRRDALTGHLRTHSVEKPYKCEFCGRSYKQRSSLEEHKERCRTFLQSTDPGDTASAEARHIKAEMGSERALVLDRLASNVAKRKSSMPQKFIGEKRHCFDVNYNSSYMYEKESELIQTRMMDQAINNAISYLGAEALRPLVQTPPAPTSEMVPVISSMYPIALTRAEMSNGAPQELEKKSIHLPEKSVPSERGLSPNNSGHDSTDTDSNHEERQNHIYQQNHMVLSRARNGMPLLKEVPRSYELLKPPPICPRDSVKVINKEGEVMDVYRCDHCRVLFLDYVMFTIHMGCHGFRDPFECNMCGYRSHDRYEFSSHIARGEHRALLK
T3 sequence (Q96SW2 whole entry): as the sequence (Q96SW2 whole entry) above
T3 sequence (Q16531 whole entry partner): as the sequence (Q16531 whole entry partner) above

For the molecule `CC(C)(O)c1cc2nc([C@H]3CC[C@H](N4CC5(CC(CCNc6cccc7c6C(=O)N(C6CCC(=O)NC6=O)C7=O)C5)C4)CC3)sc2cc1NC(=O)c1cccc(C(F)(F)F)n1` (single isomer, unassigned) [I-63], the DC50 (on IRAK4 (setting [3]); in assay [1]; in assay [2]) was less than 50 nM each time. This molecule registered an IC50 in the assay on OCI-LY10 cells of less than 50 nM.
As to `CC(C)(O)c1cc2nc([C@H]3CC[C@@H](N4CC5(CC(CCNc6cccc7c6C(=O)N(C6CCC(=O)NC6=O)C7=O)C5)C4)CC3)sc2cc1NC(=O)c1cccc(C(F)(F)F)n1` (single isomer, unassigned) [I-64], in the assay on OCI-LY10 cells, the half-inhibitory concentration (IC50) was less than 50 nM.
`CC(C)(O)c1cc2nc([C@H]3CC[C@H](CN4CC5(CC(CCNc6cccc7c6C(=O)N(C6CCC(=O)NC6=O)C7=O)C5)C4)CC3)sc2cc1NC(=O)c1cccc(C(F)(F)F)n1` (stereo partly drawn) [I-3, N-[2-[4-[[6-[2-[[2-(2,6-dioxo-3-piperidyl)-1,3-dioxo-isoindolin-4-yl]amino]ethyl]-2-azaspiro[3.3]heptan-2-yl]methyl]cyclohexyl]-5-(1-hydroxy-1-methyl-ethyl)-1,3-benzothiazol-6-yl]-6-(trifluoromethyl)pyridine-2-carboxamide]: the DC50 on IRAK4 (4 hrs incubation, read-out: IRAK4 degradation in OCI-LY10 at 4 hrs: DC50) is 50 to 100 nM; at IRAK4 (setting [3]), less than 50 nM; in assay [1] it was less than 50 nM; in assay [2], less than 50 nM.
`COc1cc2nc([C@H]3CC[C@H](CN4CCC5(CC4)CC(CCNc4cccc6c4C(=O)N(C4CCC(=O)NC4=O)C6=O)C5)CC3)sc2cc1NC(=O)c1cccc(C(C)(F)F)n1` (stereo partly drawn) [I-19]: the DC50 was 50 to 100 nM on IRAK4 (setting [3]), 50 to 100 nM in assay [1] and less than 50 nM in assay [2]. Further, the IC50 in the assay on OCI-LY10 cells lay in the range of 100 to 500 nM.
On to `COc1cc2nc([C@H]3CC[C@H](CN4CC5(CCC(CNc6cccc7c6C(=O)N(C6CCC(=O)NC6=O)C7=O)CC5)C4)CC3)sc2cc1NC(=O)c1cccc(C(F)(F)F)n1` (stereo partly drawn) [I-20], for which the DC50 on IRAK4 (setting [3]) fell in the range of 50 to 100 nM; in assay [1], 100 to 500 nM; in assay [2], 100 to 500 nM. Moreover, in the assay with OCI-LY10 cells, the IC50 was less than 50 nM.
Turning to `COc1cc2nc([C@H]3CC[C@H](CN(C)[C@H]4CC[C@]5(CC4)C[C@@H](CNc4cccc6c4C(=O)N(C4CCC(=O)NC4=O)C6=O)C5)CC3)sc2cc1NC(=O)c1cccc(C(F)(F)F)n1` (stereo partly drawn) [I-21], the half-maximal degradation concentration (DC50) at IRAK4 (setting [3]) is 100 to 500 nM; in assay [1], 50 to 100 nM; in assay [2] it was less than 50 nM. The same molecule gave a 50% inhibitory concentration (IC50) with OCI-LY10 cells of 100 to 500 nM.
`Cc1cccc(C(=O)Nc2cc3sc([C@H]4CC[C@H](CN5CCC6(CC5)CC(CCNc5cccc7c5C(=O)N(C5CCC(=O)NC5=O)C7=O)C6)CC4)nc3cc2C(C)(C)O)n1` (stereo partly drawn) [I-22]: the half-maximal degradation concentration (DC50) is 50 to 100 nM at IRAK4 (setting [3]), less than 50 nM in assay [1] and less than 50 nM in assay [2]. The same molecule showed an IC50 with OCI-LY10 cells of less than 50 nM.
`Cc1cccc(C(=O)Nc2cc3sc([C@H]4CC[C@H](CN(C)[C@H]5CC[C@H](Nc6cccc7c6C(=O)N(C6CCC(=O)NC6=O)C7=O)CC5)CC4)nc3cc2C(C)(C)O)n1` (stereo partly drawn) [I-23]: the 50% degradation concentration (DC50) at IRAK4 (setting [3]) was less than 50 nM; in assay [1], 100 to 500 nM; in assay [2], less than 50 nM. Moreover, the IC50 in the assay on OCI-LY10 cells fell in the range of 100 to 500 nM.
For `CC(C)(O)c1cc2nc([C@H]3CC[C@H](CN4CCC(CCNc5cccc6c5C(=O)N(C5CCC(=O)NC5=O)C6=O)CC4)CC3)sc2cc1NC(=O)c1cccc(C(F)(F)F)n1` (stereo partly drawn) [I-24], the DC50 (at IRAK4 (setting [3]); in assay [1]; in assay [2]) was less than 50 nM in each case. Besides, the IC50 with OCI-LY10 cells was less than 50 nM.
As for `Cc1nccc(C(=O)Nc2cc3sc([C@H]4CC[C@H](CN5CC6(CC(CCNc7cccc8c7C(=O)N(C7CCC(=O)NC7=O)C8=O)C6)C5)CC4)nc3cc2C(C)(C)O)n1` (stereo partly drawn) [I-51], at IRAK4 (setting [3]), the half-maximal degradation concentration (DC50) was greater than 1000 nM. In the assay with OCI-LY10 cells, this molecule returned an IC50 of less than 50 nM.
As for `CC(C)(O)c1cc2nc([C@H]3CC[C@H](CN4CC5(CC(CCNc6cccc7c6C(=O)N(C6CCC(=O)NC6=O)C7=O)C5)C4)CC3)sc2cc1NC(=O)c1cccc(C(C)(F)F)n1` (stereo partly drawn) [I-56], the half-maximal degradation concentration (DC50) (at IRAK4 (setting [3]); in assay [1]; in assay [2]) was less than 50 nM throughout.
Molecule `CC(C)(O)c1cc2nc([C@H]3CC[C@H](CN4CC5(CC(CCNc6cccc7c6C(=O)N(C6CCC(=O)NC6=O)C7=O)C5)C4)CC3)sc2cc1NC(=O)c1ccccn1` (stereo partly drawn) [I-57] displayed a 50% inhibitory concentration (IC50) in the assay with OCI-LY10 cells of less than 50 nM.
The same measure, in the same setting: with `CC(C)(O)c1cc2nc([C@H]3CC[C@H](CN4CC5(CC(CCNc6cccc7c6C(=O)N(C6CCC(=O)NC6=O)C7=O)C5)C4)CC3)sc2cc1NC(=O)c1cnccn1` (stereo partly drawn) [I-58] the figure was less than 50 nM.
As to `CC(C)(O)c1cc2nc([C@H]3CC[C@H](CN4CC5(CC(CCNc6cccc7c6C(=O)N(C6CCC(=O)NC6=O)C7=O)C5)C4)CC3)sc2cc1N1CCc2ccccc2C1=O` (stereo partly drawn) [I-60], the DC50 at IRAK4 (setting [3]) was less than 50 nM. For the same molecule, in the assay with OCI-LY10 cells, the half-maximal inhibitory concentration (IC50) is less than 50 nM.
Regarding `CC(C)(O)c1cc2nc([C@H]3CC[C@@H](CN4CC5(CC(CCNc6cccc7c6C(=O)N(C6CCC(=O)NC6=O)C7=O)C5)C4)CC3)sc2cc1NC(=O)c1cccc(C(F)(F)F)n1` (stereo partly drawn) [I-62, N-(2-((1S,4S)-4-((6-(2-((2-(2,6-dioxopiperidin-3-yl)-1,3-dioxoisoindolin-4-yl)amino)ethyl)-2-azaspiro[3.3]heptan-2-yl)methyl)cyclohexyl)-5-(2-hydroxypropan-2-yl)benzo[d]thiazol-6-yl)-6-(trifluoromethyl)picolinamide], the DC50 on IRAK4 (setting [3]) is 50 to 100 nM; in assay [1], less than 50 nM; in assay [2], less than 50 nM.
